Reference: paper PMC10846744, “Cathelicidin peptide analogues inhibit EV71 infection through blocking viral entry and uncoating” (PLOS Pathogens, 2024)
Where no end group is shown, it is not given here.

What was measured:
coxsackievirus B5 (CVB5) = assay: CVB5 infection inhibition on RD cells (cell viability); format: cell-based; conditions: for inhibition of CVB5 infection: 0.3, 0.9, or 1.5 μM peptide pre-incubated with virus, RD cell viability 24 h.p.i (S1F Fig); for inhibition of CVB5 infection, higher concentrations: 3, 6, or 12 μM peptide pre-incubated with virus, RD cell viability 24 h.p.i (S1H Fig)
Description: (§1) Synthetic peptides were purchased from Bioyears Co. Ltd. (Wuhan, China) with purity of more than 95% and dissolved in PBS. To test their inhibitory effects, the EV71 virus (MOI = 1) was incubated with the indicated amount of peptide at room temperature for 1 hr before the mixture was added to RD cells and maintained throughout the experiment. Cell viability, viral titer, or viral protein expression was determined 24 h.p.i. For the time-of-addition experiment, viruses were either pre-incubated with peptides (for the -2 and -1 time points), the mixture was added to the cells simultaneously (for 0 time point), or peptides were added after virus infection (for 1, 2, 4 and 7 h time points) and the virus/peptide was maintained in the culture before cell viability, viral titer, or viral protein expression was determined 24 h.p.i. The TCID50 of the virus was calculated according to the Reed-Muench method.
(§2) Cell viability assays were carried out using the Cell Titer-Glo Luminescent Cell Viability Assay Kit (Promega, Madison, WI) following the manufacturer’s instructions. Luminescence signals were measured using a BioTek Neo2 microplate reader.
(§3) (A-D) Cell viability of RD cells treated with the indicated amount of DL-37 (A), LL-37 (B), LL-18 (C), or FF-18 (D) was plotted against peptide concentration, and the cytotoxicity was determined. (E) EV71 virus pre-incubated with indicated amounts of DL-37, and the cell viability was determined 24 h.p.i. ***, P<0.001. (F-G) CVB5 (F) or Echo7 (G) virus pre-incubated with 0.3, 0.9, or 1.5 μM of peptides were used to infect RD cells. Cell viability was determined 24 h.p.i. ***, P<0.001. (H-I) CVB5 (H) or Echo7 (I) virus pre-incubated with 3, 6, or 12 μM of peptides were used to infect RD cells. Cell viability was determined 24 h.p.i. ***, P<0.001. (TIF) Click here for additional data file.

Echovirus 7 (Echo7) = assay: Echo7 infection inhibition on RD cells (cell viability); format: cell-based; conditions: for inhibition of Echo7 infection: 0.3, 0.9, or 1.5 μM peptide pre-incubated with virus, RD cell viability 24 h.p.i (S1G Fig); for inhibition of Echo7 infection, higher concentrations: 3, 6, or 12 μM peptide pre-incubated with virus, RD cell viability 24 h.p.i (S1I Fig)
Description: as §1, §2, §3

[1] = system: mouse-adapted EV71 (mEV71); assay: mEV71 infection inhibition in RD cells; format: cell-based, enterovirus 71 (EV71); conditions: mEV71 pre-incubated with LL-18 1 hr, titer 24 h.p.i (S5B Fig)
Description: (§4) Supplementary file ppat.1011967.s005.tif: S5 Fig LL-18 inhibits mEV71 infection in vivo. (A) 6-day-old ICR mice were infected with parental EV71 or mouse-adapted virus (mEV71) and the mice survival rate was determined. (B) RD cells infected with mEV71 pre-incubated with PBS or LL-18 for 1 hr were determined for virus titer 24 h.p.i. ***, P<0.001. (C) ICR mice infected with mEV71 or mEV71 pre-incubated with the indicated amount of LL-18 were sacrificed at 1 d.p.i. and viral titers from muscle were determined. ns, not significant; ***, P<0.001. (TIF) Click here for additional data file.

[2] = system: mouse-adapted EV71 (mEV71); assay: mEV71 infection model in 6-day-old ICR mice; format: in vivo
Description: Fig 7 LL-18 inhibits mEV71 infection in vivo. (A) mEV71 was pre-treated with PBS or LL-18 and used to infect 6-day old ICR mice. The survival rate of mice infected with the mEV71 virus with or without LL-18 was recorded. (B) Mice infected with the mEV71 virus with or without LL-18 pre-treatment were sacrificed 1 day post infection (d.p.i.) and viral titers from brain and muscle tissues were determined. ***, P<0.001. (C) H&E staining of muscle tissue from mice infected with the mEV71 virus with or without LL-18. Blue arrows indicate infiltrated neutrophils. Bar, 20μm.
To prepare the mouse-adapted EV71 strain, the parental EV71 virus was intraperitoneally (i.p.) inoculated into 3-day-old ICR mice. Virus was then isolated from the brain tissue and inoculated into RD cells to amplify virus. […] 1×10^9 PFU/ml mEV71 was then incubated with an equal volume of PBS or LL-18 (20 mg/kg) for one hour, and used to infect 6-day-old ICR newborn mice intraperitoneally. Mice were monitored daily to record survival rate. Meanwhile, brain and muscle tissues were collected 1-day post infection for viral titration or H&E staining.
as §4

EV71 P30 virus = assay: Resistance induction assay (30 passages); format: cell-based, enterovirus 71 (EV71); conditions: 20 passages at 0.9 μM then 10 at 1.5 μM LL-18; 1.5 μM LL-18 pre-incubation 1 h, RD cell viability 24 h.p.i
Description: (A) Diagram of resistance induction assay. (B) RD cells infected with parental EV71 or P30 with or without 1.5 μM LL-18 pre-incubation were tested for cell viability 24 h.p.i. ns, not significant; ***, P<0.001.
Resistance induction assay was conducted as previously reported. Briefly, virus was first successively passaged in RD cells for 20 generations in the presence of a lower concentration of LL-18 (0.9 μM). The progeny virus was then passaged for another 10 generations with 1.5 μM LL-18, and the progeny virus was designated as P30. The parental EV71 and P30 with the same titer were pre-incubated with 1.5 μM LL-18 for 1 h and then tested for cell viability 24 h.p.i.

IFN-β = IFN-β production in RD cells (q-RT-PCR); format: cell-based, human
Description: For real-time PCR, cells were treated as described, and cellular total RNA was isolated using the Cell Total RNA Isolation Kit (ForeGene, China) according to the manufacturer’s protocol. The cDNA was synthesized using the ProtoScript II First Strand cDNA Synthesis Kit (New England Biolabs). cDNA was then determined with 2×RealStar Green Fast Mixture (GenStar, China) with the following primers: […]
Supplementary file ppat.1011967.s007.tif: S7 Fig Induction of IFN-β production by peptides. (A) RD cells treated with 1.5 μM LL-18 or LL-37 for indicated time and IFN-β production was detected by q-RT-PCR. (B) RD cells treated with EV71 viruses pre-treated with PBS or LL-18 for indicated time and IFN-β production was detected by q-RT-PCR. ns, not significant; **, P<0.01; ***, P<0.001. (TIF) Click here for additional data file.

Sequence	inhibition of CVB5 infection (coxsackievirus B5 (CVB5))	inhibition of CVB5 infection, higher concentrations (coxsackievirus B5 (CVB5))	inhibition of Echo7 infection (Echovirus 7 (Echo7))	inhibition of Echo7 infection, higher concentrations (Echovirus 7 (Echo7))	inhibition of mEV71 infection in RD cells (virus titer) [1]	survival rate of infected suckling mice ([2]; 6-day-old ICR mice, mEV71 pre-incubated 1 hour with LL-18 (20mg/kg), intraperitoneal)	viral loads of brain and muscle ([2]; 6-day-old ICR mice, mEV71 pre-incubated with LL-18 (20mg/kg), i.p., 1 d.p.i)	inflammatory cell infiltration in muscle (H&E histology) ([2]; 6-day-old ICR mice, mEV71 with LL-18 (20mg/kg))	viral load in muscle, dose finding ([2]; ICR mice, mEV71 pre-incubated with 20 mg/kg LL-18, 1 d.p.i. (S5C Fig))	susceptibility of P30 virus to LL-18 (EV71 P30 virus)	interferon (IFN-β) production after pre-incubation of peptide with viruses (IFN-β; RD cells treated with EV71 pre-treated with LL-18, q-RT-PCR (S7B Fig))	induction of interferon (IFN-β) production by peptide alone (IFN-β; RD cells, 1.5 μM peptide, q-RT-PCR (S7A Fig))
FRKSKEKIGKFFKRIVQRIFDFLRNLV [FF-18]	neither LL-18 nor FF-18 could inhibit CVB5 or Echo 7 infection	could still not inhibit CVB5 or Echo 7 infection	neither LL-18 nor FF-18 could inhibit CVB5 or Echo 7 infection	could still not inhibit CVB5 or Echo 7 infection	–	–	–	–	–	–	–	–
FRKSKEKIGKLFKRIVQRILDFLRNLV [LL-18]	neither LL-18 nor FF-18 could inhibit CVB5 or Echo 7 infection	could still not inhibit CVB5 or Echo 7 infection	neither LL-18 nor FF-18 could inhibit CVB5 or Echo 7 infection	could still not inhibit CVB5 or Echo 7 infection	could still inhibit the infection of this mEV71 strain in RD cells	could increase the sucking mouse survival rate	significantly decreased the viral loads in both brain and muscle	improved with the administration of LL-18	could significantly reduce the viral load	still as susceptible to LL-18 as the parental virus	reduced its ability to induce interferon production	could induce interferon production
